Results published in PubChem BioAssay AID256 (DTP/NCI, 2004).
Values joined by “and” are separate entries in the source; they are usually repeats but may differ in a detail not shown here. Equal values may be shown once. Inconclusive results and toxic doses are left out. How the source made its calls: active means survival T/C of 150% or more; inactive means T/C below 125% in these data.

System: CD2F1 mice, L1210 leukemia ip, survival T/C
Assay: NCI In Vivo Anticancer Drug Screen. Data for tumor model L1210 Leukemia (intraperitoneal) in CD2F1 (CDF1) mice
Conditions: higher = longer survival
Procedure, shortened: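 Activity against a transplanted murine tumor was judged by comparing the compound group with a vehicle group. The outcome in the treated animals was divided by that in the controls.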

[1] = endpoint: mean survival time, dose: 100.0 mg/kg/injection, schedule: Q04DX003 (ip), vehicle: saline with Tween-80
[2] = endpoint: mean survival time, dose: 200.0 mg/kg/injection, schedule: Q04DX003 (ip), vehicle: saline with Tween-80
[3] = endpoint: mean survival time, dose: 400.0 mg/kg/injection, schedule: Q04DX003 (ip), vehicle: saline with Tween-80
[4] = endpoint: mean survival time, dose: 50.0 mg/kg/injection, schedule: Q01DX009 (ip), vehicle: saline with Tween-80
[5] = endpoint: mean survival time, dose: 100.0 mg/kg/injection, schedule: Q01DX009 (ip), vehicle: saline with Tween-80
[6] = endpoint: mean survival time, dose: 200.0 mg/kg/injection, schedule: Q01DX009 (ip), vehicle: saline with Tween-80
[7] = endpoint: mean survival time, dose: 100.0 mg/kg/injection, schedule: Q01DX001 (ip), vehicle: saline with Tween-80
[8] = endpoint: mean survival time, dose: 200.0 mg/kg/injection, schedule: Q01DX001 (ip), vehicle: saline with Tween-80
[9] = endpoint: mean survival time, dose: 400.0 mg/kg/injection, schedule: Q01DX001 (ip), vehicle: saline with Tween-80
[10] = endpoint: mean survival time, dose: 12.5 mg/kg/injection, schedule: Q04DX003 (ip), vehicle: saline with Tween-80
[11] = endpoint: mean survival time, dose: 25.0 mg/kg/injection, schedule: Q04DX003 (ip), vehicle: saline with Tween-80
[12] = endpoint: mean survival time, dose: 50.0 mg/kg/injection, schedule: Q04DX003 (ip), vehicle: saline with Tween-80
[13] = endpoint: mean survival time, dose: 12.5 mg/kg/injection, schedule: Q01DX009 (ip), vehicle: saline with Tween-80
[14] = endpoint: mean survival time, dose: 25.0 mg/kg/injection, schedule: Q01DX009 (ip), vehicle: saline with Tween-80
[15] = endpoint: mean survival time, dose: 75.0 mg/kg/injection, schedule: Q01DX001 (ip), vehicle: saline
[16] = endpoint: mean survival time, dose: 150.0 mg/kg/injection, schedule: Q01DX001 (ip), vehicle: saline

Measured: T/C

Cc1ccc(S(=O)(=O)OC2C(O)C(CO)OC2n2c(Br)c(C#N)c3c(N)ncnc32)cc1 (stereo not drawn)
inactive: endpoint: mean survival time, dose: 25.0 mg/kg/injection, schedule: Q01DX005 (ip), vehicle: saline with Tween-80 93 % of control | endpoint: mean survival time, dose: 50.0 mg/kg/injection, schedule: Q01DX005 (ip), vehicle: saline with Tween-80 102 % of control | endpoint: mean survival time, dose: 100.0 mg/kg/injection, schedule: Q01DX005 (ip), vehicle: saline with Tween-80 100 % of control | endpoint: mean survival time, dose: 200.0 mg/kg/injection, schedule: Q01DX005 (ip), vehicle: saline with Tween-80 96 % of control

CC(=O)OCCC(C)Nc1ccnc2cc(Cl)ccc12 (stereo not drawn)
inactive: endpoint: mean survival time, dose: 10.0 mg/kg/injection, schedule: Q01DX009 (ip), vehicle: saline with Tween-80 100 % of control | endpoint: mean survival time, dose: 20.0 mg/kg/injection, schedule: Q01DX009 (ip), vehicle: saline with Tween-80 102 % of control | endpoint: mean survival time, dose: 40.0 mg/kg/injection, schedule: Q01DX009 (ip), vehicle: saline with Tween-80 96 % of control | [1] 100 % of control

CC1CC(=O)C2=C(C1)NC(=O)CC2 (stereo not drawn)
inactive: [1] 90 % of control | [2] 96 % of control | [3] 101 % of control

COc1ccc(C(Br)C(C)Br)cc1 (stereo not drawn)
inactive: [4] 97 % of control | [5] 94 % of control | [1] 98 % of control | [6] 97 % of control | [2] 98 % of control

CC(C)(C)N=C1OC(=O)c2ccccc21
inactive: [1] 101 % of control | [2] 101 % of control | [3] 101 % of control

CC(O)c1cccc([N+](=O)[O-])c1 (stereo not drawn)
inactive: [7] 93 % of control | [8] 97 % of control | [9] 93 % of control

O=C(c1ccc([N+](=O)[O-])cc1)C(Br)C(Br)c1ccnc2ccccc12 (stereo not drawn)
inactive: [10] 92 % of control | [11] 98 % of control | [12] 95 % of control

Cc1ccc(N)cc1 (tested in a mixture with another compound)
inactive: [10] 97 % of control | [11] 101 % of control and 103 % of control | [12] 107 % of control | [1] 110 % of control and 103 % of control and 107 % of control | [2] 105 % of control and 117 % of control | [3] 102 % of control

COc1cc2cc3cc4cc(OC)c(OC)cc4c(C)[n+]3cc2cc1OC (tested in a mixture with another compound)
inactive: endpoint: mean survival time, dose: 12.5 mg/kg/injection, schedule: Q01DX009 (ip), vehicle: suspension in saline 109 % of control | endpoint: mean survival time, dose: 25.0 mg/kg/injection, schedule: Q01DX009 (ip), vehicle: suspension in saline 110 % of control | endpoint: mean survival time, dose: 50.0 mg/kg/injection, schedule: Q01DX009 (ip), vehicle: suspension in saline 114 % of control | endpoint: mean survival time, dose: 100.0 mg/kg/injection, schedule: Q01DX009 (ip), vehicle: suspension in saline 107 % of control | endpoint: mean survival time, dose: 200.0 mg/kg/injection, schedule: Q01DX009 (ip), vehicle: suspension in saline 110 % of control

C1CC[N-]CC1.C1CC[N-]CC1.[Cl][Rh]([Cl])[Cl]
inactive: [13] 90 % of control | [14] 98 % of control | [4] 100 % of control | [5] 94 % of control | [6] 96 % of control

CC(=O)OC1CCC2(C)C(=CCC3C2CCC2(C)C(C(=O)CC(O)(C(F)(F)F)C(F)(F)F)CCC32)C1 (stereo not drawn)
inactive: endpoint: mean survival time, dose: 12.5 mg/kg/injection, schedule: Q04DX002 (ip), vehicle: saline with Tween-80 98 % of control | endpoint: mean survival time, dose: 25.0 mg/kg/injection, schedule: Q04DX002 (ip), vehicle: saline with Tween-80 90 % of control | endpoint: mean survival time, dose: 50.0 mg/kg/injection, schedule: Q04DX002 (ip), vehicle: saline with Tween-80 94 % of control

O=c1[nH]c2cc([N+](=O)[O-])ccc2c2ccccc12
inactive: endpoint: mean survival time, dose: 50.0 mg/kg/injection, schedule: Q01DX001 (ip), vehicle: carboxymethylcellulose (CMC) 101 % of control | endpoint: mean survival time, dose: 100.0 mg/kg/injection, schedule: Q01DX001 (ip), vehicle: carboxymethylcellulose (CMC) 98 % of control | endpoint: mean survival time, dose: 200.0 mg/kg/injection, schedule: Q01DX001 (ip), vehicle: carboxymethylcellulose (CMC) 98 % of control | endpoint: mean survival time, dose: 400.0 mg/kg/injection, schedule: Q01DX001 (ip), vehicle: carboxymethylcellulose (CMC) 98 % of control

CC12CCC3C(CC=C4CC(OC(=N)N)CCC43C)C1CCC2=O (stereo not drawn)
inactive: [15] 98 % of control | [16] 101 % of control

COC(=O)C(F)C(Br)C(=O)OC (stereo not drawn)
inactive: endpoint: mean survival time, dose: 3.12 mg/kg/injection, schedule: Q01DX009 (ip), vehicle: saline with Tween-80 108 % of control | endpoint: mean survival time, dose: 6.25 mg/kg/injection, schedule: Q01DX009 (ip), vehicle: saline with Tween-80 97 % of control | [13] 107 % of control | [14] 105 % of control | [4] 108 % of control

CNC1C(CO)OC(n2cnc3c(N)ncnc32)C1O (stereo not drawn)
inactive: [15] 106 % of control | [16] 103 % of control | endpoint: mean survival time, dose: 300.0 mg/kg/injection, schedule: Q01DX001 (ip), vehicle: saline 109 % of control

O=C(O)/C=C(/Br)C(=O)O
inactive: endpoint: mean survival time, dose: 100.0 mg/kg/injection, schedule: Q01DX001 (ip), vehicle: saline 97 % of control | endpoint: mean survival time, dose: 200.0 mg/kg/injection, schedule: Q01DX001 (ip), vehicle: saline 108 % of control

CC(=O)Oc1cccc(/C=C/[N+](=O)[O-])c1
inactive: endpoint: mean survival time, dose: 75.0 mg/kg/injection, schedule: Q01DX001 (ip), vehicle: steriod suspending solution 97 % of control | endpoint: mean survival time, dose: 150.0 mg/kg/injection, schedule: Q01DX001 (ip), vehicle: steriod suspending solution 97 % of control | endpoint: mean survival time, dose: 300.0 mg/kg/injection, schedule: Q01DX001 (ip), vehicle: steriod suspending solution 110 % of control

OC1CCC2CCC1C2 (stereo not drawn)
inactive: [7] 102 % of control | [8] 104 % of control | [9] 101 % of control

CCC[CH2][Sn]([CH2]CCC)([n]1cncn1)[n]1cncn1
inactive: [10] 105 % of control

CC(C)CCOC(=O)Nc1cccc(O)c1
inactive: [1] 98 % of control | [2] 100 % of control | [3] 101 % of control

COC(=O)CC(C)Cc1ccc(OC)c(OC)c1 (stereo not drawn)
inactive: endpoint: mean survival time, dose: 100.0 mg/kg/injection, schedule: Q01DX009 (ip), vehicle: saline 97 % of control | [1] 97 % of control | endpoint: mean survival time, dose: 200.0 mg/kg/injection, schedule: Q01DX009 (ip), vehicle: saline 95 % of control | [2] 100 % of control | endpoint: mean survival time, dose: 400.0 mg/kg/injection, schedule: Q01DX009 (ip), vehicle: saline 86 % of control | [3] 96 % of control

Nc1nc(N)nc(Nc2ccc(Sc3ccc(Nc4nc(N)nc(N)n4)cc3)cc2)n1
inactive: endpoint: mean survival time, dose: 180.0 mg/kg/injection, schedule: Q01DX Z (ip), vehicle: saline 103 % of control

Nc1ncnc2c1ncn2C1OC(C[Se](=O)c2ccccc2)C(O)C1O (stereo not drawn)
inactive: endpoint: median survival time, dose: 12.5 mg/kg/injection, schedule: Q01DX005 (ip), vehicle: Klucel (hydroxypropylcellulose) (HPC) 102 % of control | endpoint: median survival time, dose: 25.0 mg/kg/injection, schedule: Q01DX005 (ip), vehicle: Klucel (hydroxypropylcellulose) (HPC) 106 % of control | endpoint: median survival time, dose: 50.0 mg/kg/injection, schedule: Q01DX005 (ip), vehicle: Klucel (hydroxypropylcellulose) (HPC) 103 % of control | endpoint: median survival time, dose: 100.0 mg/kg/injection, schedule: Q01DX005 (ip), vehicle: Klucel (hydroxypropylcellulose) (HPC) 103 % of control | endpoint: median survival time, dose: 200.0 mg/kg/injection, schedule: Q01DX005 (ip), vehicle: Klucel (hydroxypropylcellulose) (HPC) 104 % of control

O=Cc1cccc(OCc2ccc([N+](=O)[O-])cc2)c1
inactive: endpoint: mean survival time, dose: 50.0 mg/kg/injection, schedule: Q01DX009 (ip), vehicle: Klucel (hydroxypropylcellulose) (HPC) 105 % of control | endpoint: mean survival time, dose: 100.0 mg/kg/injection, schedule: Q01DX009 (ip), vehicle: Klucel (hydroxypropylcellulose) (HPC) 108 % of control | endpoint: mean survival time, dose: 200.0 mg/kg/injection, schedule: Q01DX009 (ip), vehicle: Klucel (hydroxypropylcellulose) (HPC) 97 % of control

Nc1nc(N)c(NC=O)c(N)n1
inactive: endpoint: mean survival time, dose: 12.5 mg/kg/injection, schedule: Q01DX009 (ip), vehicle: water 101 % of control | endpoint: mean survival time, dose: 25.0 mg/kg/injection, schedule: Q01DX009 (ip), vehicle: water 101 % of control | endpoint: mean survival time, dose: 50.0 mg/kg/injection, schedule: Q01DX009 (ip), vehicle: water 106 % of control | endpoint: mean survival time, dose: 100.0 mg/kg/injection, schedule: Q01DX009 (ip), vehicle: water 103 % of control | endpoint: mean survival time, dose: 200.0 mg/kg/injection, schedule: Q01DX009 (ip), vehicle: water 103 % of control

CCCCC(CCC)OC(=O)Nc1cccc2ccccc12 (stereo not drawn)
inactive: [7] 93 % of control | [8] 93 % of control | [9] 93 % of control
